Measurements reported in ChEMBL document CHEMBL4308841, “Synthesis, in vitro antiproliferative activity, and kinase inhibitory effects of pyrazole-containing diarylureas and diarylamides” (Eur J Med Chem, 2018).

Legend:
HOP-62 = test: Growth inhibition of human HOP62 cells assessed as cell growth at 0.1 uM incubated for 48 hrs by sulforhodamine B assay relative to control; format: functional; settings: HOP-62, 48 h, read-out: Activity
CCRF-CEM = test: Growth inhibition of human CCRF-CEM cells incubated for 48 hrs by sulforhodamine B assay; format: functional, cell-based
K562 = test: Growth inhibition of human K562 cells assessed as cell growth at 0.01 uM incubated for 48 hrs by sulforhodamine B assay relative to control; format: functional; settings: K562, 48 h, read-out: Activity
ACHN [1] = test: Growth inhibition of human ACHN cells assessed as cell growth at 0.01 uM incubated for 48 hrs by sulforhodamine B assay relative to control; format: functional; settings: read-out: Activity
A498 = test: Growth inhibition of human A498 cells assessed as cell growth at 0.01 uM incubated for 48 hrs by sulforhodamine B assay relative to control; format: functional; settings: A498, 48 h, read-out: Activity
MCF7 = test: Growth inhibition of human MCF7 cells assessed as cell growth at 0.01 uM incubated for 48 hrs by sulforhodamine B assay relative to control; format: functional; settings: MCF7, 48 h, read-out: Activity
HT-29 = test: Growth inhibition of human HT-29 cells assessed as cell growth at 1 uM incubated for 48 hrs by sulforhodamine B assay relative to control; format: functional; settings: HT-29, 48 h, read-out: Activity
SF-295 = test: Growth inhibition of human SF295 cells incubated for 48 hrs by sulforhodamine B assay; format: functional, cell-based; settings: SF-295, 48 h
ACHN [2] = test: Growth inhibition of human ACHN cells assessed as cell growth at 0.1 uM incubated for 48 hrs by sulforhodamine B assay relative to control; format: functional; settings: read-out: Activity
UACC-257 = test: Growth inhibition of human UACC257 cells assessed as cell growth at 0.1 uM incubated for 48 hrs by sulforhodamine B assay relative to control; format: functional; settings: UACC-257, 48 h, read-out: Activity
HOP-92 [3] = test: Growth inhibition of human HOP92 cells assessed as cell growth at 10 uM incubated for 48 hrs by sulforhodamine B assay relative to control; format: functional; settings: HOP-92, 48 h, read-out: Activity
NCI-H226 = test: Growth inhibition of human NCI-H226 cells assessed as cell growth at 0.1 uM incubated for 48 hrs by sulforhodamine B assay relative to control; format: functional; settings: NCI-H226, 48 h, read-out: Activity
HOP-92 [4] = test: Growth inhibition of human HOP92 cells assessed as cell growth at 1 uM incubated for 48 hrs by sulforhodamine B assay relative to control; format: functional; settings: HOP-92, 48 h, read-out: Activity
HOP-92 [5] = test: Growth inhibition of human HOP92 cells assessed as cell growth at 0.01 uM incubated for 48 hrs by sulforhodamine B assay relative to control; format: functional; settings: HOP-92, 48 h, read-out: Activity
[6] = biological target: Mast/stem cell growth factor receptor Kit (Homo sapiens) (UniProt P10721); test: Inhibition of human c-KIT at 10 uM using poly[Glu:Tyr] (4:1) as substrate after 40 mins in presence of [gamma33P]ATP by scintillation counting method relative to control
[7] = biological target: Mitogen-activated protein kinase 1 (Homo sapiens) (UniProt P28482); test: Inhibition of human ERK2 at 10 uM using myelin basic protein as substrate after 40 mins in presence of [gamma33P]ATP by scintillation counting method relative to control
[8] = biological target: DNA-dependent protein kinase catalytic subunit (Homo sapiens) (UniProt P78527); test: Inhibition of human DNAPK at 10 uM using EPPLSQEAFADLWKK as substrate after 40 mins in presence of [gamma33P]ATP by scintillation counting method relative to control
[9] = biological target: RAF proto-oncogene serine/threonine-protein kinase (Homo sapiens) (UniProt P04049); test: Inhibition of human c-RAF at 10 uM using MEK1 (K97R) as substrate after 40 mins in presence of [gamma33P]ATP by scintillation counting method relative to control
TK-10 [10] = test: Growth inhibition of human TK10 cells assessed as cell growth at 1 uM incubated for 48 hrs by sulforhodamine B assay relative to control; format: functional; settings: TK-10, 48 h, read-out: Activity
[11] = biological target: PI3-kinase p110-alpha/p85-alpha (Homo sapiens) (UniProt P27986+P42336); test: Inhibition of human PI3K p110a/p85a at 10 uM using PI(4,5)P2:PS as substrate after 40 mins in presence of [gamma33P]ATP by scintillation counting method relative to control; format: protein-complex assay
TK-10 [12] = test: Growth inhibition of human TK10 cells assessed as cell growth at 0.01 uM incubated for 48 hrs by sulforhodamine B assay relative to control; format: functional; settings: TK-10, 48 h, read-out: Activity
[13] = biological target: Macrophage colony-stimulating factor 1 receptor (Homo sapiens) (UniProt P07333); test: Inhibition of human FMS at 10 uM using poly[Glu:Tyr] (4:1) as substrate after 40 mins in presence of [gamma33P]ATP by scintillation counting method relative to control
[14] = biological target: Serine/threonine-protein kinase B-raf (Homo sapiens) (UniProt P15056); test: Inhibition of human BRAF at 10 uM using MEK1 (K97R) as substrate after 40 mins in presence of [gamma33P]ATP by scintillation counting method relative to control
[15] = biological target: Hepatocyte growth factor receptor (Homo sapiens) (UniProt P08581); test: Inhibition of human c-MET at 10 uM using KKKSPGEYVNIEFG as substrate after 40 mins in presence of [gamma33P]ATP by scintillation counting method relative to control
[16] = biological target: Platelet-derived growth factor receptor beta (Homo sapiens) (UniProt P09619); test: Inhibition of human PDGFRb at 10 uM using poly[Glu:Tyr] (4:1) as substrate after 40 mins in presence of [gamma33P]ATP by scintillation counting method relative to control
HOP-92 [17] = test: Growth inhibition of human HOP92 cells assessed as cell growth at 0.1 uM incubated for 48 hrs by sulforhodamine B assay relative to control; format: functional; settings: HOP-92, 48 h, read-out: Activity
RPMI-8226 = test: Induction of apoptosis in human RPMI8226 cells assessed as increase in caspase 3/7 level; format: functional, cell-based
HOP-92 [18] = test: Growth inhibition of human HOP92 cells assessed as cell growth at 100 uM incubated for 48 hrs by sulforhodamine B assay relative to control; format: functional; settings: HOP-92, 48 h, read-out: Activity
[19] = biological target: Vascular endothelial growth factor receptor 2 (Homo sapiens) (UniProt P35968); test: Inhibition of human VEGFR2 at 10 uM using poly[Glu:Tyr] (4:1) as substrate after 40 mins in presence of [gamma33P]ATP by scintillation counting method relative to control
[20] = biological target: Fibroblast growth factor receptor 1 (Homo sapiens) (UniProt P11362); test: Inhibition of human FGFR1 at 10 uM using KKKSPGEYVNIEFG as substrate after 40 mins in presence of [gamma33P]ATP by scintillation counting method relative to control
[21] = read-out: LC50 (the source's name)
[22] = read-out: pLC50 (the source's name) (converted)

Chain of Vascular endothelial growth factor receptor 2 (Homo sapiens) (P35968 whole entry): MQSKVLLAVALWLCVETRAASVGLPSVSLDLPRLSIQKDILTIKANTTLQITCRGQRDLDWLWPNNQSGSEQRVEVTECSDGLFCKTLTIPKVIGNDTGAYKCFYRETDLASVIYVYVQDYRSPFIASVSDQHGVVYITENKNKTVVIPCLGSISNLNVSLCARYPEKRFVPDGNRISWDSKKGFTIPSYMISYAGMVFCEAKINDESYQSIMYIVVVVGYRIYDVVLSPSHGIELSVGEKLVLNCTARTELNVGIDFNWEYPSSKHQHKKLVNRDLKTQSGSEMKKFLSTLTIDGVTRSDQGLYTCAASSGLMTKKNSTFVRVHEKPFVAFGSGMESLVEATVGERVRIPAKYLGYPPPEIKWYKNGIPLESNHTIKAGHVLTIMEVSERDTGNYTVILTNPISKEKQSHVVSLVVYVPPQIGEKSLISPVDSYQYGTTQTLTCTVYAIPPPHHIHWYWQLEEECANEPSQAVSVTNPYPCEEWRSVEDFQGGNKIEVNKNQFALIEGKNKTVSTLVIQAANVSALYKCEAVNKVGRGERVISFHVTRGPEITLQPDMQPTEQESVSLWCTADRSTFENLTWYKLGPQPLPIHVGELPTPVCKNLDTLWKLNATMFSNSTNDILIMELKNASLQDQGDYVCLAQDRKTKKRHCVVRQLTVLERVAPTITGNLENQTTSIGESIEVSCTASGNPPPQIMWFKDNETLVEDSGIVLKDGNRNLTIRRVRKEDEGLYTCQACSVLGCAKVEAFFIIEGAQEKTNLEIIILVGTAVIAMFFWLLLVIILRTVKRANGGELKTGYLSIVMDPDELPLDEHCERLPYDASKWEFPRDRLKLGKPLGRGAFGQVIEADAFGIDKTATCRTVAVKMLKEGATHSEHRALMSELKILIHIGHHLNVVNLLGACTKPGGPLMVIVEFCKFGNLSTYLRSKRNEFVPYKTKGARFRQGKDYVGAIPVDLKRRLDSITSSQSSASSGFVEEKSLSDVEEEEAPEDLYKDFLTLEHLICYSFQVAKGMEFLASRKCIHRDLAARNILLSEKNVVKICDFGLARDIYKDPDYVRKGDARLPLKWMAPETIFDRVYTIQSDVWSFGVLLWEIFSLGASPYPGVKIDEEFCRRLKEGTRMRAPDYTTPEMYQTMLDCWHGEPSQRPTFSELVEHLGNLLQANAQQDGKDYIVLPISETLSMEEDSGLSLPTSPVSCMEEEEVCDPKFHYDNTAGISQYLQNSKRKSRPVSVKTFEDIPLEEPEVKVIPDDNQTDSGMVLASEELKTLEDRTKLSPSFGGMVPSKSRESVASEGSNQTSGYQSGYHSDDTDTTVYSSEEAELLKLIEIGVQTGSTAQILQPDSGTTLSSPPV
Chain of Hepatocyte growth factor receptor (Homo sapiens) (P08581 whole entry): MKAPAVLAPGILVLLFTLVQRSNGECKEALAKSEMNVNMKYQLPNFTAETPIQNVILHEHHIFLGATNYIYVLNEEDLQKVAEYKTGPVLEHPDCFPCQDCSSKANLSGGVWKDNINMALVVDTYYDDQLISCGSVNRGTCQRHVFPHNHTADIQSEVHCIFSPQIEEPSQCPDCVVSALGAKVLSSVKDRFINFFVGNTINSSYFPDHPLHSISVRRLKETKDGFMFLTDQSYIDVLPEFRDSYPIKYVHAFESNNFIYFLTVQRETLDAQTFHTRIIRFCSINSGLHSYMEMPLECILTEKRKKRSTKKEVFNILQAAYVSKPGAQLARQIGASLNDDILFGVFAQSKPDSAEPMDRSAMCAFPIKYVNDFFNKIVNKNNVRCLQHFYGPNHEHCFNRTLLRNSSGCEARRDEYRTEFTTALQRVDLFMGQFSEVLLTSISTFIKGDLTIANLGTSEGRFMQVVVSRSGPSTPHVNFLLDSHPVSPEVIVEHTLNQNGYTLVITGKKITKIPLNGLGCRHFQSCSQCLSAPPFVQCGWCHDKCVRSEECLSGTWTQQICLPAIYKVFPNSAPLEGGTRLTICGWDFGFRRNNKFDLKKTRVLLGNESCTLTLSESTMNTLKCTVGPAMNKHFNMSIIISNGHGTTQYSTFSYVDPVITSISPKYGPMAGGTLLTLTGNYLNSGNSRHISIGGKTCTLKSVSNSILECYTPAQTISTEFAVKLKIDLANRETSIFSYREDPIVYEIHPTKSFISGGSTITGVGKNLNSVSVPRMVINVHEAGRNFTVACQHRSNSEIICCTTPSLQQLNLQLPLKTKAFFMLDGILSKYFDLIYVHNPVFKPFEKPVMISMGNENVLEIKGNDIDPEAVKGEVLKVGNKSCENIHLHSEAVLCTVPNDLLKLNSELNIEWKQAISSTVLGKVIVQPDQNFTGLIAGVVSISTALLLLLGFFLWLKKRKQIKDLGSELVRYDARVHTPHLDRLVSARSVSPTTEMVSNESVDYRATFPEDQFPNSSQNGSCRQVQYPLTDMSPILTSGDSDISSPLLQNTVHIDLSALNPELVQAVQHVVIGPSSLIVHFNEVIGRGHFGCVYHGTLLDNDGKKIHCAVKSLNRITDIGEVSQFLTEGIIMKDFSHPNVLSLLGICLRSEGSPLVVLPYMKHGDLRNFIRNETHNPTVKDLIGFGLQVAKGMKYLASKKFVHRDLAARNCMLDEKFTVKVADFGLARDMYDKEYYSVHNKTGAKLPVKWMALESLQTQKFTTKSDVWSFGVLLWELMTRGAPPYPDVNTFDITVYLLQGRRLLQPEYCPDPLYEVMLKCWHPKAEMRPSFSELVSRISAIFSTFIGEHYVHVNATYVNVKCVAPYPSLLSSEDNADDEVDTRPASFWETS
Chain of Mast/stem cell growth factor receptor Kit (Homo sapiens) (P10721 whole entry): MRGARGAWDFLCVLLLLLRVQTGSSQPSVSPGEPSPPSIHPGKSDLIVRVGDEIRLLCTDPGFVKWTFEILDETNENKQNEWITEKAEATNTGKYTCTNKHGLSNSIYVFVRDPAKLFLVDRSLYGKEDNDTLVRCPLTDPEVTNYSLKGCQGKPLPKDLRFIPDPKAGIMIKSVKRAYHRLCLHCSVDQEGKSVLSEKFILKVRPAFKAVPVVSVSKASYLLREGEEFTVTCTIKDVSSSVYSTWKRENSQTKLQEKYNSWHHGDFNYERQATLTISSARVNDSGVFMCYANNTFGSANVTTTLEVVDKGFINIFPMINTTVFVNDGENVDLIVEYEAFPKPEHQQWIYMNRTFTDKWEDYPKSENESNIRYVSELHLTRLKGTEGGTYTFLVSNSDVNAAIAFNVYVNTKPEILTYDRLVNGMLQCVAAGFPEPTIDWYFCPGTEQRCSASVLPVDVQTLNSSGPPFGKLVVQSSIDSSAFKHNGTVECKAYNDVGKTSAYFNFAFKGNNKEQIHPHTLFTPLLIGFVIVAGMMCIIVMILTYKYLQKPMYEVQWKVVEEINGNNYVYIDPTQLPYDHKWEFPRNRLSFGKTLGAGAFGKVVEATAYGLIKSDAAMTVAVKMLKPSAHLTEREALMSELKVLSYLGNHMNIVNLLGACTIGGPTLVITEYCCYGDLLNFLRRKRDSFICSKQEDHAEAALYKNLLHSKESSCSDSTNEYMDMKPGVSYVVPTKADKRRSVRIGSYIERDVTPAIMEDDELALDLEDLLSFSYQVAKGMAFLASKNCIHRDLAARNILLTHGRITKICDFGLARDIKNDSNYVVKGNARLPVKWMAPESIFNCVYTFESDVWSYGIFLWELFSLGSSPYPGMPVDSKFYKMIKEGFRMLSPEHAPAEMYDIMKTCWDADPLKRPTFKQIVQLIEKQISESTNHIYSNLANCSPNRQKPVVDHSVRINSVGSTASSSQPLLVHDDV
Chain of Fibroblast growth factor receptor 1 (Homo sapiens) (P11362 22-822 limits assumed): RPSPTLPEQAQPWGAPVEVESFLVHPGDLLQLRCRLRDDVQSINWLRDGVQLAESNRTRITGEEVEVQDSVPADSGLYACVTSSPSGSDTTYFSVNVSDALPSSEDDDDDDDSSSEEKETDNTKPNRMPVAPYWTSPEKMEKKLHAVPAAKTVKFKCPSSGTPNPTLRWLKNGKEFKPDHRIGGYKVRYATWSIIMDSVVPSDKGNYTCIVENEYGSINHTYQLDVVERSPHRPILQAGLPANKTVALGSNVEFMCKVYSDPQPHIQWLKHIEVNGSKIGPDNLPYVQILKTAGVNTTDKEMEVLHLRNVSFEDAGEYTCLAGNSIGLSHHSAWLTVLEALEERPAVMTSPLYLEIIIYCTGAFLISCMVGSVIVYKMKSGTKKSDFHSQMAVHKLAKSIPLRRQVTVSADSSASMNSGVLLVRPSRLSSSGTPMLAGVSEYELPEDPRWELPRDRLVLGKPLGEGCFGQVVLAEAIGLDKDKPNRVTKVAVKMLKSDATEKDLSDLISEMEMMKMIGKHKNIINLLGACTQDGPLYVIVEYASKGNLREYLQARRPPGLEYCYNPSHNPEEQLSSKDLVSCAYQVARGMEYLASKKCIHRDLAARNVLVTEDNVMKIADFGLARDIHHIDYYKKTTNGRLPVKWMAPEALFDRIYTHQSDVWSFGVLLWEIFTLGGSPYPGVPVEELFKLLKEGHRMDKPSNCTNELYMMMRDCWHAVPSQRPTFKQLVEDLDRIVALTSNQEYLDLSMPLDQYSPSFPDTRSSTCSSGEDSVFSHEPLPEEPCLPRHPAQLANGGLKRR
Chain of Mitogen-activated protein kinase 1 (Homo sapiens) (P28482 whole entry): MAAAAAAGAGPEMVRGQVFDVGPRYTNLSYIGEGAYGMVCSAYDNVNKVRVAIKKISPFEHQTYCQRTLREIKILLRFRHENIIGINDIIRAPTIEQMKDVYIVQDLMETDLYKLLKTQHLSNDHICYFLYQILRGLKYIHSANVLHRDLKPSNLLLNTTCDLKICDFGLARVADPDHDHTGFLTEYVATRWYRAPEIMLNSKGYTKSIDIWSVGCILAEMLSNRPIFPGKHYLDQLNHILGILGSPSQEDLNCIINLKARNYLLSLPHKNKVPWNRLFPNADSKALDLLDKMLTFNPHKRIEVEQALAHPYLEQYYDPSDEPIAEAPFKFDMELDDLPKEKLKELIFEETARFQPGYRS

COc1cc(Cl)cc(-c2nn(-c3cccc(NC(=O)Nc4cccc(C(F)(F)F)c4)c3)cc2-c2ccncc2)c1 was tested. Which growth at 0.1 µM (HOP-62) did it give?
The growth at 0.1 µM was 97%.

And the GI50 (CCRF-CEM; read-out: GI50)?
The GI50 was 1.2 µM.

And the CC50 (CCRF-CEM; [21])?
The CC50 was over 100 µM.

What about the TGI (CCRF-CEM; read-out: TGI) of the same compound?
Its TGI is 53.6 µM.

And the GI50 (CCRF-CEM; read-out: pGI50 (converted))?
Its GI50 is 1.2 µM.

And the CC50 (CCRF-CEM; [22])?
The CC50 was over 100 µM.

What about the TGI (CCRF-CEM; read-out: pTGI (converted)) of the same compound?
Its TGI is 5.37 µM.

And the growth at 0.01 µM (K562)?
Its growth at 0.01 µM is 104%.

What about the growth at 0.01 µM (ACHN [1]) of the same compound?
Its growth at 0.01 µM is 108%.

And the growth at 0.01 µM (A498)?
The growth at 0.01 µM was 95%.

What about the growth at 0.01 µM (MCF7) of the same compound?
The growth at 0.01 µM was 91%.

What about the growth at 1 µM (HT-29) of the same compound?
The growth at 1 µM was 65%.

And the GI50 (SF-295; read-out: GI50)?
The GI50 was 0.753 µM.

What about the CC50 (SF-295; [21]) of the same compound?
The CC50 was 75.9 µM.

What about the TGI (SF-295; read-out: TGI) of the same compound?
Its TGI is 45.2 µM.

And the GI50 (SF-295; read-out: pGI50 (converted))?
The GI50 was 0.776 µM.

And the CC50 (SF-295; [22])?
Its CC50 is 77.6 µM.

What about the TGI (SF-295; read-out: pTGI (converted)) of the same compound?
Its TGI is 4.57 µM.

And the growth at 0.1 µM (ACHN [2])?
The growth at 0.1 µM was 92%.

What about the growth at 0.1 µM (UACC-257) of the same compound?
The growth at 0.1 µM was 94%.

And the growth at 10 µM (HOP-92 [3])?
Its growth at 10 µM is -27.3%.

And the growth at 0.1 µM (NCI-H226)?
Its growth at 0.1 µM is 95%.

What does the source list for O=C(Nc1cccc(-n2cc(-c3ccncc3)c(-c3cc(O)cc(Cl)c3)n2)c1)Nc1ccc(Cl)c(Cl)c1?
growth at 0.1 µM (HOP-62): 97%; GI50 (CCRF-CEM; read-out: GI50): 2.12 µM; CC50 (CCRF-CEM; [21]): > 100 µM; GI50 (CCRF-CEM; read-out: pGI50 (converted)): 2.14 µM; CC50 (CCRF-CEM; [22]): > 100 µM; growth at 0.01 µM (K562): 107%; growth at 0.01 µM (ACHN [1]): 91%; growth at 0.01 µM (A498): 57%; growth at 0.01 µM (MCF7): 93%; growth at 1 µM (HT-29): 96%; GI50 (SF-295; read-out: GI50): 1.7 µM; CC50 (SF-295; [21]): 4.4 µM; TGI (SF-295; read-out: TGI): 45 µM; GI50 (SF-295; read-out: pGI50 (converted)): 1.7 µM; CC50 (SF-295; [22]): 43.7 µM; TGI (SF-295; read-out: pTGI (converted)): 4.57 µM; growth at 0.1 µM (ACHN [2]): 95%; growth at 0.1 µM (UACC-257): 91%; growth at 10 µM (HOP-92 [3]): -30.5%; growth at 0.1 µM (NCI-H226): 89%

Which results are given for COc1cc(Cl)cc(-c2nn(-c3cccc(NC(=O)Nc4cc(C(F)(F)F)cc(C(F)(F)F)c4)c3)cc2-c2ccncc2)c1?
growth at 0.1 µM (HOP-62): 93%; growth at 1 µM (HOP-92 [4]): -10%; IC50 (CCRF-CEM): 0.27 µM; GI50 (CCRF-CEM; read-out: GI50): 0.273 µM; CC50 (CCRF-CEM; [21]): > 100 µM; TGI (CCRF-CEM; read-out: TGI): 1.33 µM; GI50 (CCRF-CEM; read-out: pGI50 (converted)): 0.275 µM; CC50 (CCRF-CEM; [22]): > 100 µM; TGI (CCRF-CEM; read-out: pTGI (converted)): 1.35 µM; growth at 0.01 µM (HOP-92 [5]): 93%; growth at 0.01 µM (K562): 97%; inhibition [6]: 1.25%; inhibition [7]: -8.66%; inhibition [8]: 3.5%; inhibition [9]: 57.8%; growth at 1 µM (TK-10 [10]): 42%; inhibition [11]: 16.8%; growth at 0.01 µM (TK-10 [12]): 96%; growth at 0.01 µM (ACHN [1]): 103%; inhibition [13]: -0.94%; inhibition [14]: 39.1%; inhibition [15]: 5.66%; growth at 0.01 µM (A498): 64%; growth at 0.01 µM (MCF7): 58%; growth at 1 µM (HT-29): 23%; IC50 (SF-295): 0.33 µM; GI50 (SF-295; read-out: GI50): 0.332 µM; CC50 (SF-295; [21]): 0.0637 µM; TGI (SF-295; read-out: TGI): 1.44 µM; GI50 (SF-295; read-out: pGI50 (converted)): 0.331 µM; CC50 (SF-295; [22]): 6.31 µM; TGI (SF-295; read-out: pTGI (converted)): 1.45 µM; growth at 0.1 µM (ACHN [2]): 99%; inhibition [16]: -9.26%; growth at 0.1 µM (HOP-92 [17]): 83%; EC50 (RPMI-8226): 1.52 µM; growth at 0.1 µM (UACC-257): 94%; growth at 100 µM (HOP-92 [18]): -77%; inhibition [19]: -5.83%; growth at 0.1 µM (NCI-H226): 102%; inhibition [20]: -1.71%
